Key:
SK-MEL-1 human melanoma [1] = assay: Radioligand therapy of SK-MEL-1 human melanoma-bearing mice; type: in vivo, NRG mice; details: radiotherapy group, 26.7±3.6 MBq/mouse
Description: For radioligand therapy, SK-MEL-1 human melanoma-bearing mice were injected with saline (control group, n=5), non-radioactive lutetium coupled CCZ01158 (cold std, n=4), and [^177Lu]Lu-CCZ01158 (26.7±3.6 MBq/mouse, n=4). Tumour size and body weight were measured every 2-4 days from the date of injection. Endpoint was defined as >15% weight loss, ulceration of tumours, or tumour volume >1000 mm^3 (Volume=width×width×length/2, measured with calliper). […] This confirms the effectiveness of the ^177Lu radiotherapy with CCZ01158 as the melanoma targeting molecule. […] All mice were euthanized when the tumours reached over 1000 mm^3, except for one mouse due to weight loss in the saline group, and one mouse due to tumour ulceration in the cold std group.

in vivo = details: male, NRG (NOD.Cg-Rag1tm1Mom Il2rgtm1Wjl/SzJ), mouse, total radioactivity
Description: (§1) The SK-MEL-1 human melanoma cell line (HTB-67) was obtained commercially from ATCC. SK-MEL-1 cells were cultured in Eagle's Minimum Essential Medium (StemCell Technologies) under the same conditions as described in Example 1. Immunodeficient NOD.Cg-Rag1tm1Mom I12rgtm1Wjl/SzJ (NRG) male mice were obtained from an in-house breeding colony at the BC Cancer Research Centre. For tumor implantation, male NRG mice were anesthetized by inhalation with 2% isoflurane, and 5 million SK-MEL-1 cells were inoculated subcutaneously on the right dorsal flank. Mice were used for imaging or biodistribution studies when the tumors reached 6-8 mm in diameter in 16-20 days.
(§2) Biodistribution studies were performed as described in Example 3.

[2] = Biodistribution of 177Lu-labeled αMSH analogues in mice bearing SK-MEL-1 human melanoma; details: male, mouse, total radioactivity
Description: as §1, §2

SK-MEL-1 human melanoma [3] = assay: as above; details: compared to the other two analogues
Description: as §1, §2

[4] = NRG (NOD.Cg-Rag1tm1Mom I12rgtm1Wjl/SzJ), fat, iv
[5] = NRG (NOD.Cg-Rag1tm1Mom I12rgtm1Wjl/SzJ), seminal glands, iv
[6] = NRG (NOD.Cg-Rag1tm1Mom Il2rgtm1Wjl/SzJ), SK-MEL-1 tumour
[7] = NRG (NOD.Cg-Rag1tm1Mom Il2rgtm1Wjl/SzJ), adrenal glands
[8] = NRG (NOD.Cg-Rag1tm1Mom Il2rgtm1Wjl/SzJ), blood
[9] = NRG (NOD.Cg-Rag1tm1Mom Il2rgtm1Wjl/SzJ), bone
[10] = NRG (NOD.Cg-Rag1tm1Mom Il2rgtm1Wjl/SzJ), brain
[11] = NRG (NOD.Cg-Rag1tm1Mom Il2rgtm1Wjl/SzJ), heart
[12] = NRG (NOD.Cg-Rag1tm1Mom Il2rgtm1Wjl/SzJ), intestine
[13] = NRG (NOD.Cg-Rag1tm1Mom Il2rgtm1Wjl/SzJ), kidneys
[14] = NRG (NOD.Cg-Rag1tm1Mom Il2rgtm1Wjl/SzJ), liver
[15] = NRG (NOD.Cg-Rag1tm1Mom Il2rgtm1Wjl/SzJ), lungs
[16] = NRG (NOD.Cg-Rag1tm1Mom Il2rgtm1Wjl/SzJ), muscle
[17] = NRG (NOD.Cg-Rag1tm1Mom Il2rgtm1Wjl/SzJ), pancreas
[18] = NRG (NOD.Cg-Rag1tm1Mom Il2rgtm1Wjl/SzJ), spleen
[19] = NRG (NOD.Cg-Rag1tm1Mom Il2rgtm1Wjl/SzJ), stomach
[20] = NRG (NOD.Cg-Rag1tm1Mom Il2rgtm1Wjl/SzJ), testes
[21] = NRG (NOD.Cg-Rag1tm1Mom Il2rgtm1Wjl/SzJ), thyroid
[22] = NRG (NOD.Cg-Rag1tm1Mom Il2rgtm1Wjl/SzJ), urine

tissue to tissue ratio at 1 h (in vivo; Tumour/blood): 0.69 ± 0.08 | tissue to tissue ratio at 4 h (in vivo; Tumour/blood): 2.24 ± 0.36 | tissue to tissue ratio at 24 h (in vivo; Tumour/blood): 62.8 ± 26.4 | tissue to tissue ratio at 120 h (in vivo; Tumour/blood): 436 ± 64.7 | tissue to tissue ratio at 1 h (in vivo; Tumour/muscle): 7.99 ± 1.03 | tissue to tissue ratio at 4 h (in vivo; Tumour/muscle): 23.6 ± 4.32 | tissue to tissue ratio at 24 h (in vivo; Tumour/muscle): 245 ± 48 | tissue to tissue ratio at 120 h (in vivo; Tumour/muscle): 394 ± 42.9 | tissue uptake at 1 h [2, 4]: 2.24 ± 0.49 %ID/g | tissue uptake at 4 h [2, 4]: 1.85 ± 0.53 %ID/g | tissue uptake at 24 h [2, 4]: 0.3 ± 0.07 %ID/g | tissue uptake at 120 h [2, 4]: 0.2 ± 0.08 %ID/g | tissue uptake at 1 h [2, 5]: 1.8 ± 0.79 %ID/g | tissue uptake at 4 h [2, 5]: 0.79 ± 0.13 %ID/g | tissue uptake at 24 h [2, 5]: 0.15 ± 0.07 %ID/g | tissue uptake at 120 h [2, 5]: 0.11 ± 0.06 %ID/g | tissue uptake at 1 h [2, 6]: 13.3 ± 2.94 %ID/g | tissue uptake at 4 h [2, 6]: 24.3 ± 5.04 %ID/g | tissue uptake at 24 h [2, 6]: 29.7 ± 4.29 %ID/g | tissue uptake at 120 h [2, 6]: 19.3 ± 7.95 %ID/g | tissue uptake at 1 h [2, 7]: 5.1 ± 1.69 %ID/g | tissue uptake at 4 h [2, 7]: 3.54 ± 1.01 %ID/g | tissue uptake at 24 h [2, 7]: 1.68 ± 0.93 %ID/g | tissue uptake at 120 h [2, 7]: 1.36 ± 1.56 %ID/g | tissue uptake at 1 h [2, 8]: 19.1 ± 3.57 %ID/g | tissue uptake at 4 h [2, 8]: 10.8 ± 0.87 %ID/g | tissue uptake at 24 h [2, 8]: 0.54 ± 0.24 %ID/g | tissue uptake at 120 h [2, 8]: 0.04 ± 0.01 %ID/g | tissue uptake at 1 h [2, 9]: 1.36 ± 0.32 %ID/g | tissue uptake at 4 h [2, 9]: 0.8 ± 0.24 %ID/g | tissue uptake at 24 h [2, 9]: 0.24 ± 0.15 %ID/g | tissue uptake at 120 h [2, 9]: 0.23 ± 0.09 %ID/g | tissue uptake at 1 h [2, 10]: 0.33 ± 0.1 %ID/g | tissue uptake at 4 h [2, 10]: 0.2 ± 0.01 %ID/g | tissue uptake at 24 h [2, 10]: 0.04 ± 0.02 %ID/g | tissue uptake at 120 h [2, 10]: 0.03 ± 0.02 %ID/g | tissue uptake at 1 h [2, 11]: 4.7 ± 0.7 %ID/g | tissue uptake at 4 h [2, 11]: 2.84 ± 0.4 %ID/g | tissue uptake at 24 h [2, 11]: 0.5 ± 0.2 %ID/g | tissue uptake at 120 h [2, 11]: 0.3 ± 0.13 %ID/g | tissue uptake at 1 h [2, 12]: 2.07 ± 0.42 %ID/g | tissue uptake at 4 h [2, 12]: 1.32 ± 0.2 %ID/g | tissue uptake at 24 h [2, 12]: 0.51 ± 0.52 %ID/g | tissue uptake at 120 h [2, 12]: 0.28 ± 0.11 %ID/g | tissue uptake at 1 h [2, 13]: 11.3 ± 2.81 %ID/g | tissue uptake at 4 h [2, 13]: 11.3 ± 1.38 %ID/g | tissue uptake at 24 h [2, 13]: 8.29 ± 1.94 %ID/g | tissue uptake at 120 h [2, 13]: 3.26 ± 1.6 %ID/g | tissue uptake at 1 h [2, 14]: 7.24 ± 2.38 %ID/g | tissue uptake at 4 h [2, 14]: 6.37 ± 1.33 %ID/g | tissue uptake at 24 h [2, 14]: 4.45 ± 2.6 %ID/g | tissue uptake at 120 h [2, 14]: 3.85 ± 1.63 %ID/g | tissue uptake at 1 h [2, 15]: 11.2 ± 2.91 %ID/g | tissue uptake at 4 h [2, 15]: 6.81 ± 1.45 %ID/g | tissue uptake at 24 h [2, 15]: 1.55 ± 1.22 %ID/g | tissue uptake at 120 h [2, 15]: 2.15 ± 2.57 %ID/g | tissue uptake at 1 h [2, 16]: 1.67 ± 0.35 %ID/g | tissue uptake at 4 h [2, 16]: 1.03 ± 0.06 %ID/g | tissue uptake at 24 h [2, 16]: 0.13 ± 0.04 %ID/g | tissue uptake at 120 h [2, 16]: 0.05 ± 0.02 %ID/g | tissue uptake at 1 h [2, 17]: 1.87 ± 0.3 %ID/g | tissue uptake at 4 h [2, 17]: 1.22 ± 0.08 %ID/g | tissue uptake at 24 h [2, 17]: 0.27 ± 0.13 %ID/g | tissue uptake at 120 h [2, 17]: 0.16 ± 0.07 %ID/g | tissue uptake at 1 h [2, 18]: 3.9 ± 1.66 %ID/g | tissue uptake at 4 h [2, 18]: 2.5 ± 0.5 %ID/g | tissue uptake at 24 h [2, 18]: 1.89 ± 0.85 %ID/g | tissue uptake at 120 h [2, 18]: 4.6 ± 3.88 %ID/g | tissue uptake at 1 h [2, 19]: 0.85 ± 0.29 %ID/g | tissue uptake at 4 h [2, 19]: 0.66 ± 0.12 %ID/g | tissue uptake at 24 h [2, 19]: 1.07 ± 1.42 %ID/g | tissue uptake at 120 h [2, 19]: 1.24 ± 0.65 %ID/g | tissue uptake at 1 h [2, 20]: 2.99 ± 0.56 %ID/g | tissue uptake at 4 h [2, 20]: 2.8 ± 0.12 %ID/g | tissue uptake at 24 h [2, 20]: 0.92 ± 0.26 %ID/g | tissue uptake at 120 h [2, 20]: 0.56 ± 0.25 %ID/g | tissue uptake at 1 h [2, 21]: 5.57 ± 0.79 %ID/g | tissue uptake at 4 h [2, 21]: 5.74 ± 0.74 %ID/g | tissue uptake at 24 h [2, 21]: 5.04 ± 1.22 %ID/g | tissue uptake at 120 h [2, 21]: 5.4 ± 2.58 %ID/g | tissue to tissue ratio at 1 h ([2]; NRG (NOD.Cg-Rag1tm1Mom Il2rgtm1Wjl/SzJ), tumour/kidney, 1 h p.i., NRG mice, SK-MEL-1 melanoma): 1.18 ± 0.11 | tissue to tissue ratio at 4 h ([2]; NRG (NOD.Cg-Rag1tm1Mom Il2rgtm1Wjl/SzJ), tumour/kidney, 4 h p.i., NRG mice, SK-MEL-1 melanoma): 2.14 ± 0.26 | tissue to tissue ratio at 24 h ([2]; NRG (NOD.Cg-Rag1tm1Mom Il2rgtm1Wjl/SzJ), tumour/kidney, 24 h p.i., NRG mice, SK-MEL-1 melanoma): 3.68 ± 0.6 | tissue to tissue ratio at 120 h ([2]; NRG (NOD.Cg-Rag1tm1Mom Il2rgtm1Wjl/SzJ), tumour/kidney, 120 h p.i., NRG mice, SK-MEL-1 melanoma): 6.17 ± 1.09 | excreta dose per gram or mL at 1 h [2, 22]: 214 ± 57.6 %ID/g | excreta dose per gram or mL at 4 h [2, 22]: 258 ± 66.2 %ID/g | excreta dose per gram or mL at 24 h [2, 22]: 21.8 ± 4.6 %ID/g | excreta dose per gram or mL at 120 h [2, 22]: 3.56 ± 1.16 %ID/g
SMILES: CCCC[C@H](NC(=O)CN1CCC(NC(=O)[C@H](CCCCNC(=O)CN2CCN(CC(=O)O)CCN(CC(=O)O)CCN(CC(=O)O)CC2)NC(=O)CNC(=O)CCCc2ccc(-c3ccc(C)cc3)cc2)CC1)C(=O)N[C@H]1CC(=O)NCCCC[C@@H](C(N)=O)N(C)C(=O)[C@H](Cc2c[nH]c3ccccc23)NC(=O)[C@H](CCCNC(=N)N)N(C)C(=O)[C@@H](Cc2ccccc2)NC(=O)[C@H](Cc2c[nH]cn2)NC1=O [^177Lu-labeled CCZ01158, metal not drawn]
Adverse effects (SK-MEL-1 human melanoma [1]): No obvious adverse effects were observed | Overall comparison of tumour uptake and tumour to background contrast (SK-MEL-1 human melanoma [3]): superior due to high and sustained tumour uptake, as well as superior tumour to background contrast

Reference: patent US11395857B2, “Radiolabeled melanocortin 1 receptor-specific alpha-melanocyte-stimulating hormone analogues for imaging or therapy” (PROVINCIAL HEALTH SERVICES AUTHORITY, priority 2018, dated 2022)
